Among the data in US20240150298A1, “ANTIBACTERIAL COMPOUNDS” (Blacksmith Medicines, Inc., priority 2021, published 2024) are MIC values, retold here.

What all share (experiment): Bacterial susceptibility testing, MIC by broth microdilution (CLSI)
What all share (format): cell-based

Assay [1] has as its system E. coli ATCC25922. As to conditions: Escherichia coli. The procedure: (§1) Minimal inhibitory concentrations (MIC) were determined by the broth microdilution method in accordance with the Clinical and Laboratory Standards Institute (CLSI) guidelines. In brief, organism suspensions were adjusted to a final inoculum between 3×10^5 and 7×10^5 colony-forming units (CFU)/mL. Drug dilutions and inocula were made in sterile, cation adjusted Mueller-Hinton Broth (Beckton Dickinson). In wells, an inoculum volume of 100 μL was mixed to 2 μL of DMSO with 2-fold serial dilutions of drug. All inoculated microdilution trays were incubated in ambient air at 35° C. for 18-24 h. Following incubation, the lowest concentration of the drug that prevented visible growth (OD600 nm<0.05) was recorded as the MIC. Performance of the assay was monitored by the use of laboratory quality-control strains and compounds with defined MIC spectrum, in accordance with CLSI guidelines.

The subject of assay [2] is K. pneumoniae ATCC13883. The conditions noted are these: Klebsiella pneumoniae. The procedure: as §1
The subject of assay [3] is P. aeruginosa 209 PAO1. As to conditions: Pseudomonas aeruginosa. The procedure: as §1
The subject of assay [4] is P. aeruginosa ATCC27835. As to conditions: Pseudomonas aeruginosa. The method, then: as §1
The mark [5] stands for this setting: ATCC25922, broth microdilution, 35° C., 18-24 h, read-out: MIC E. coli ATCC25922.
Setting [6] is: ATCC13883, broth microdilution, 35° C., 18-24 h, read-out: MIC K. pneumoniae ATCC13883.
[7] abbreviates: PAO1, broth microdilution, 35° C., 18-24 h, read-out: MIC P. aeruginosa 209 PAO1.
[8] abbreviates: ATCC27835, broth microdilution, 35° C., 18-24 h, read-out: MIC P. aeruginosa ATCC27835.

Molecules are shown by their SMILES. Converted amounts (≈) assume the structure as drawn. Where two headings read alike, the source gives them in different places.

For `C[C@H](O)c1nccn1[C@@H](/C=C/c1ccc(-c2ccc([C@H]3C[C@H](NC(=O)CC#N)C3)cc2)cc1)CO` [Compound 65, 2-cyano-N-((1S,3r)-3-(4′-((S,E)-4-hydroxy-3-(2-((S)-1-hydroxyethyl)-1H-imidazol-1-yl)but-1-en-1-yl)-[1,1′-biphenyl]-4-yl)cyclobutyl)acetamide], the MIC in assay [1] (ATCC25922, read-out: MIC E. coli ATCC25922) came to 0.5 µg/mL (≈ 1.06 µM); in assay [2] (ATCC13883, read-out: MIC K. pneumoniae ATCC13883), 1 µg/mL (≈ 2.13 µM); in assay [3] (PAO1, read-out: MIC P. aeruginosa 209 PAO1), 2 µg/mL (≈ 4.25 µM); in assay [4] (ATCC27835, read-out: MIC P. aeruginosa ATCC27835), 2 µg/mL (≈ 4.25 µM).

`C[C@H](O)c1nccn1[C@@H](/C=C/c1ccc(-c2ccc(C3CC(NCC(F)(F)CO)C3)cc2)cc1)CO` (stereo partly drawn) [Compound 45, (S,E)-4-(4′-(3-((2,2-difluoro-3-hydroxypropyl)amino)cyclobutyl)-[1,1′-biphenyl]-4-yl)-2-(2-((S)-1-hydroxyethyl)-1H-imidazol-1-yl)but-3-en-1-ol]: the MIC in assay [1] (setting [5]) is 0.25 µg/mL (≈ 0.502 µM); in assay [2] (setting [6]) it was 0.5 µg/mL (≈ 1 µM); in assay [3] (setting [7]) it was 4 µg/mL (≈ 8.04 µM); in assay [4] (setting [8]), 4 µg/mL (≈ 8.04 µM).

Consider `C[C@H](O)c1nccn1[C@@H](/C=C/c1ccc(-c2ccc(OC[C@H](O)CO)cc2)cc1)CO` [Compound 23, (R)-3-((4′-((S,E)-4-hydroxy-3-(2-((S)-1-hydroxyethyl)-1H-imidazol-1-yl)but-1-en-1-yl)-[1,1′-biphenyl]-4-yl)oxy)propane-1,2-diol], for which the MIC in assay [1] (setting [5]) worked out at 8 µg/mL (≈ 18.8 µM); in assay [2] (setting [6]), 16 µg/mL (≈ 37.7 µM); in assay [3] (setting [7]) it was 4 µg/mL (≈ 9.42 µM); in assay [4] (setting [8]), 4 µg/mL (≈ 9.42 µM).

As to `C[C@H](O)c1nccn1[C@@H](/C=C/c1ccc(-c2ccc(C3CC3OC(CO)CO)cc2)cc1)CO` (stereo partly drawn) [Compound 70, 2-(2-(4′-((S,E)-4-hydroxy-3-(2-((S)-1-hydroxyethyl)-1H-imidazol-1-yl)but-1-en-1-yl)-[1,1′-biphenyl]-4-yl)cyclopropoxy)propane-1,3-diol], the MIC in assay [1] (setting [5]) was 2 µg/mL (≈ 4.31 µM); in assay [2] (setting [6]), 8 µg/mL (≈ 17.2 µM); in assay [3] (setting [7]), 4 µg/mL (≈ 8.61 µM); in assay [4] (setting [8]), 4 µg/mL (≈ 8.61 µM).

Consider `C[C@H](O)c1nccn1[C@@H](/C=C/c1ccc(-c2ccc(O[C@H]3C[C@@H]3N)cc2)cc1)CO` (racemic) [Compound 13, (S,E)-4-(4′-((trans)-2-aminocyclopropoxy)-[1,1′-biphenyl]-4-yl)-2-(2-((S)-1-hydroxyethyl)-1H-imidazol-1-yl)but-3-en-1-ol], for which the minimal inhibitory concentration (MIC) in assay [1] (setting [5]) turned out to be 4 µg/mL (≈ 9.86 µM); in assay [2] (setting [6]), 4 µg/mL (≈ 9.86 µM); in assay [3] (setting [7]) it was 2 µg/mL (≈ 4.93 µM); in assay [4] (setting [8]) it was 16 µg/mL (≈ 39.5 µM).

Consider `C[C@H](O)c1nccn1[C@@H](/C=C/c1ccc(-c2ccc(C3CC(NCC(=O)O)C3)cc2)cc1)CO` (stereo partly drawn) [Compound 44, (3-(4′-((S,E)-4-hydroxy-3-(2-((S)-1-hydroxyethyl)-1H-imidazol-1-yl)but-1-en-1-yl)-[1,1′-biphenyl]-4-yl)cyclobutyl)glycine], for which the MIC is 4 µg/mL (≈ 8.67 µM) in assay [1] (setting [5]), 8 µg/mL (≈ 17.3 µM) in assay [2] (setting [6]), 4 µg/mL (≈ 8.67 µM) in assay [3] (setting [7]) and 4 µg/mL (≈ 8.67 µM) in assay [4] (setting [8]).

With `C[C@H](O)c1nccn1[C@@H](/C=C/c1ccc(-c2ccc(C3CC(CNCc4noc(C(N)=O)n4)C3)cc2)cc1)CO` (stereo partly drawn) [Compound 57, 3-((((3-(4′-((S,E)-4-hydroxy-3-(2-((S)-1-hydroxyethyl)-1H-imidazol-1-yl)but-1-en-1-yl)-[1,1′-biphenyl]-4-yl)cyclobutyl)methyl)amino)methyl)-1,2,4-oxadiazole-5-carboxamide], the MIC in assay [1] (setting [5]) came to 0.25 µg/mL (≈ 0.461 µM); in assay [2] (setting [6]), 1 µg/mL (≈ 1.84 µM); in assay [3] (setting [7]) it was 4 µg/mL (≈ 7.37 µM); in assay [4] (setting [8]), 4 µg/mL (≈ 7.37 µM).

As to `C[C@H](O)c1nccn1[C@@H](/C=C/c1ccc(-c2ccc(CO[C@H]3C[C@H]3N)cc2)cc1)CO` (racemic) [Compound 16, (S,E)-4-(4′-(((cis)-2-aminocyclopropoxy)methyl)-[1,1′-biphenyl]-4-yl)-2-(2-((S)-1-hydroxyethyl)-1H-imidazol-1-yl)but-3-en-1-ol], the MIC in assay [1] (setting [5]) turned out to be 2 µg/mL (≈ 4.77 µM); in assay [2] (setting [6]), 8 µg/mL (≈ 19.1 µM); in assay [3] (setting [7]) it was 2 µg/mL (≈ 4.77 µM); in assay [4] (setting [8]), 4 µg/mL (≈ 9.53 µM).
